# Reference: patent US20250353841A1 (BIOGEN MA INC., priority 2022, published 2025)
# pIC50: −log10 of the molar value.
# Tested on: mutant Huntington (HTT) protein
# Assay: HTT Mutant HTRF iPSC assay (mHTT protein lowering)
# Assay type: cell-based
# Conditions: human iPSC derived from a HTT patient with a poly-Q49 mutation
row,Structure (SMILES),pIC50
1,"Cc1cn2cc(-c3cc(F)c4nc(C5CCNCC5)cn4c3)ccc2n1 [Compound 96, 8-fluoro-2′-methyl-2-(piperidin-4-yl)-6,6′-biimidazo[1,2-a]pyridine]",5.05 to 6.00
2,"Cc1cn2nc(-c3cc(F)c4[nH]c(C5CC6(CCNCC6)C5)nc4c3)cc(C)c2n1 [Compound 421, 6-(7-fluoro-2-(7-azaspiro[3.5]nonan-2-yl)-1H-benzo[d]imidazol-5-yl)-2,8-dimethylimidazo[1,2-b]pyridazine]",6.00 to 7.00
3,"Cn1cc2cc(-c3cc(F)c4nc([C@H]5CNCCO5)cn4c3)cc(F)c2n1 (single isomer, unassigned) [Compound 70]",5.05 to 6.00
4,"Cc1cn2nc(-c3cc(F)c4nc(NC(=O)C5CCNC6(CC6)C5)cn4c3)cc(C)c2n1 (stereo not shown) [Compound 268, N-(6-(2,8-dimethylimidazo[1,2-b]pyridazin-6-yl)-8-fluoroimidazo[1,2-a]pyridin-2-yl)-4-azaspiro[2.5]octane-7-carboxamide]",> 7.00
5,"CN1CC2(c3cn4cc(-c5cc(F)c6nn(C)cc6c5)cc(F)c4n3)CC1C2 [Compound 66, 7-fluoro-5-[8-fluoro-2-(2-methyl-2-azabicyclo[2.1.1]hexan-4-yl)imidazo[1,2-a]pyridin-6-yl]-2-methyl-indazole]",5.05 to 6.00
6,"Cc1cn2nc(-c3cc(F)c4nc(NC5CCN(C6CCOC6)CC5)oc4c3)cc(C)c2n1 (stereo not shown) [Compound 481, 6-(2,8-dimethylimidazo[1,2-b]pyridazin-6-yl)-4-fluoro-N-(1-(tetrahydrofuran-3-yl)piperidin-4-yl)benzo[d]oxazol-2-amine]",> 7.00
7,"Cc1cn2nc(-c3cc(F)c4nc(NC(=O)C5COC5)cn4c3)cc(C)c2n1 [Compound 256, N-(6-(2,8-dimethylimidazo[1,2-b]pyridazin-6-yl)-8-fluoroimidazo[1,2-a]pyridin-2-yl)oxetane-3-carboxamide]",6.00 to 7.00
8,"Cc1cn2nc(-c3cc(F)c4nc([C@H]5C[C@]6(CN[C@@H](C)C6)C5)cn4c3)cc(C)c2n1 (single isomer, unassigned) [Compound 177, 6-(8-fluoro-2-((2S*,4r,7S*)-7-methyl-6-azaspiro[3.4]octan-2-yl)imidazo[1,2-a]pyridin-6-yl)-2,8-dimethylimidazo[1,2-b]pyridazine]",> 7.00
9,"Cc1nc2ccc(-c3cc(F)c4nc([C@H]5[C@@H]6CN(C)C[C@@H]65)cn4c3)nn2n1 [Compound 219, 6-(8-fluoro-2-((1R,5S,6r)-3-methyl-3-azabicyclo[3.1.0]hexan-6-yl)imidazo[1,2-a]pyridin-6-yl)-2-methyl-[1,2,4]triazolo[1,5-b]pyridazine]",6.00 to 7.00
10,"Cc1cn2nc(-c3cc(F)c4nc(C5CCN(C6(C)CC6)CC5)cn4c3)cc(C)c2n1 [Compound 226, 6-[8-fluoro-2-[1-(1-methylcyclopropyl)-4-piperidyl]imidazo[1,2-a]pyridin-6-yl]-2,8-dimethyl-imidazo[1,2-b]pyridazine]",6.00 to 7.00
11,"Cc1cn2cc(-c3cc(F)c4nc(C5CCNCC5)cn4c3)cc(Cl)c2n1 [Compound 32, 8-chloro-8′-fluoro-2-methyl-2′-(piperidin-4-yl)-6,6′-biimidazo[1,2-a]pyridine]",6.00 to 7.00
12,"Cn1nc2cc(-c3cc(F)c4nc(C5CCNCC5)cn4c3)cc(F)c2n1 [Compound 87, 4-fluoro-6-(8-fluoro-2-(piperidin-4-yl)imidazo[1,2-a]pyridin-6-yl)-2-methyl-2H-benzo[d][1,2,3]triazole]",6.00 to 7.00
13,"Cc1nc2c(F)cc(-c3cc(F)c4[nH]c(C5CCNCC5)nc4c3)cn2n1 [Compound 149, 8-fluoro-6-(7-fluoro-2-(piperidin-4-yl)-1H-benzo[d]imidazol-5-yl)-2-methyl-[1,2,4]triazolo[1,5-a]pyridine]",5.05 to 6.00
14,"Cc1cn2nc(-c3cc(F)c4nc(NC(=O)CC5CCNC5)cn4c3)cc(C)c2n1 (racemic) [Compound 283, N-(6-(2,8-dimethylimidazo[1,2-b]pyridazin-6-yl)-8-fluoroimidazo[1,2-a]pyridin-2-yl)-2-(pyrrolidin-3-yl)acetamide]",6.00 to 7.00
15,"Cc1cn2nc(-c3cc(F)c4nc(N5CCC(CN(C)CC6CC6)C5)oc4c3)cc(C)c2n1 (stereo not shown) [Compound 489, 1-cyclopropyl-N-((1-(6-(2,8-dimethylimidazo[1,2-b]pyridazin-6-yl)-4-fluorobenzo[d]oxazol-2-yl)pyrrolidin-3-yl)methyl)-N-methylmethanamine]",> 7.00
16,"Cc1cn2nc(-c3cc(F)c4nc(NC(=O)C5CCNCC5)cn4c3)cc(C)c2n1 [Compound 250, N-(6-(2,8-dimethylimidazo[1,2-b]pyridazin-6-yl)-8-fluoroimidazo[1,2-a]pyridin-2-yl)piperidine-4-carboxamide]",6.00 to 7.00
17,"COc1cc(-c2cc(C(F)F)c3nc(C)cn3n2)cn2cc([C@H]3[C@@H]4CN(C)C[C@@H]43)nc12 [Compound 540, 8-(difluoromethyl)-6-[8-methoxy-2-[3-methyl-3-azabicyclo[3.1.0]hexan-6-yl]imidazo[1,2-a]pyridin-6-yl]-2-methyl-imidazo[1,2-b]pyridazine]",> 7.00
18,"Cn1ncc2cc(-c3cc(F)c4nc(C5CCNCC5)cn4c3)cc(F)c21 [Compound 104, 7-fluoro-5-(8-fluoro-2-(piperidin-4-yl)imidazo[1,2-a]pyridin-6-yl)-1-methyl-1H-indazole]",5.05 to 6.00
19,"Cc1nc2ccc(-c3cc(F)c4nc(C5CCNCC5)cn4c3)cn2n1 [Compound 37, 6-(8-fluoro-2-(piperidin-4-yl)imidazo[1,2-a]pyridin-6-yl)-2-methyl-[1,2,4]triazolo[1,5-a]pyridine]",5.05 to 6.00
20,"Cn1cc2cc(-c3cc(F)c4nc(CC5CNC5)cn4c3)cc(F)c2n1 [Compound 19, 5-(2-(azetidin-3-ylmethyl)-8-fluoroimidazo[1,2-a]pyridin-6-yl)-7-fluoro-2-methyl-2H-indazole]",5.05 to 6.00
21,"CNCCc1cn2cc(-c3ccc4nn(C)cc4c3)cc(F)c2n1 [Compound 22, 2-(8-fluoro-6-(2-methyl-2H-indazol-5-yl)imidazo[1,2-a]pyridin-2-yl)-N-methylethan-1-amine]",5.05 to 6.00
22,"Cc1cn2nc(-c3cc(F)c4nc([C@H]5C[C@@]6(CCN(C)C6)C5)cn4c3)cc(C)c2n1 [Compound 202, 6-(8-fluoro-2-((2r,4r)-6-methyl-6-azaspiro[3.4]octan-2-yl)imidazo[1,2-a]pyridin-6-yl)-2,8-dimethylimidazo[1,2-b]pyridazine]",> 7.00
23,"CCN1CCC(N(C)c2nc3c(F)cc(-c4cc(C)c5nc(C)cn5n4)cc3o2)CC1C (stereo not shown) [Compound 503, 6-(2,8-dimethylimidazo[1,2-b]pyridazin-6-yl)-N-(1-ethyl-2-methylpiperidin-4-yl)-4-fluoro-N-methylbenzo[d]oxazol-2-amine]",> 7.00
24,"Cc1cn2nc(-c3cc(F)c4nc(NC(=O)C5CNC5)cn4c3)cc(C)c2n1 [Compound 294, N-[6-(2,8-dimethylimidazo[1,2-b]pyridazin-6-yl)-8-fluoro-imidazo[1,2-a]pyridin-2-yl]azetidine-3-carboxamide]",> 7.00
25,"Cc1nc2ccc(-c3cc(F)c4nn(C5CCNCC5)cc4c3)nn2n1 [Compound 561, 6-(7-fluoro-2-(piperidin-4-yl)-2H-indazol-5-yl)-2-methyl-[1,2,4]triazolo[1,5-b]pyridazine]",> 7.00
